Reference: patent US12484580B2, “Use of alkoxypyrazoles as nitrification inhibitors” (BASF SE, priority 2018, dated 2025)

Experiments:
[1] = volatility of prior-art nitrification inhibitor; type: physicochemical; settings: stated as disadvantageous for long-term applications
[2] = test system: nitrification (soil microbial biomass); experiment: inhibition of nitrification in soil incubation test (ammonium and nitrate content after 0 and 14 days); settings: compound at 1% of nitrogen N, 100 g soil, 10 mg ammoniumsulfate-N, 20° C., best obtained NI value
Experimental: The compounds of the invention have been tested as follows in terms of the inhibition of nitrification: 100 g soil is filled into 500 ml plastic bottles (e.g. soil sampled from the field) and is moistened to 50% water holding capacity. The soil is incubated at 20° C. for two weeks to activate the microbial biomass. 1 ml test solution, containing the compound in the appropriate concentration (usually 0.3 or 1% of nitrogen N), or DMSO and 10 mg nitrogen in the form of ammoniumsulfate-N is added to the soil and everything mixed well. Bottles are capped but loosely to allow air exchange. The bottles are then incubated at 20° C. for 0 and 14 days. For analysis, 300 ml of a 1% K2SO4-solution is added to the bottle containing the soil and shaken for 2 hours in a horizontal shaker at 150 rpm. Then the whole solution is filtered through a filter (Macherey-Nagel Filter MN 807 ¼). Ammonium and nitrate content is then analyzed in the filtrate in an autoanalyzer at 550 nm (Merck, AA11). The inhibition (NI @ a specified concentration) is calculated as follows: [formula]

Row | SMILES | volatility [1] | NI* @ 1% [2]
1 | CCOc1cc(C)[nH]n1 [3-ethoxy-5-methylpyrazole] | high volatility | –
2 | CCOc1[nH]nc(C)c1Cl [compound 9] | – | 22.0
